Data published in patent US20100155657A1, “AQUEOUS COMPOSITION CONTAINING FLUORINATED SULFONAMIDE AND SULFONAMIDATE COMPOUNDS” (3M Innovative Properties Company, priority 2008, published 2010).

What was measured:
[1] = calculated neutralization equilibrium constant Kn for deprotonation of sulfonamide with ammonia; format: physicochemical; details: for Kn: RfSO2NHX + NH3 -> RfSO2N(-)X + NH4+, pKa of ammonium 9.24 at 25 °C; for K(RfSO2NHX): acid dissociation constant of the sulfonamide, from pKa
Experimental: The equilibrium between a sulfonamide and its conjugate sulfamidate anion is determined by the both the pKa of the sulfonamide and the pKb (i.e., the pKa of the conjugate acid of the base).
NH3+RfSO2NHX→NH4^++RfSO2N^(−)X
The neutralization equilibrium constant Kn can be expressed as
Kn can also be expressed as: […]

[2] = determined experimentally

Kn [1]	K(RfSO2NHX) [1]	pKa [2]	Structure (SMILES)
467	2.69 × 10^−7	–	O=S(=O)(NCCO)C(F)(F)C(F)(F)C(F)(F)C(F)(F)F [X = CH2CH2OH, CF3CF2CF2CF2SO2NHCH2CH2OH]
–	–	8.15	CCNS(=O)(=O)C(F)(F)C(F)(F)C(F)(F)C(F)(F)F [X = CH2CH3]
52	3.01 × 10^−8	–	CNS(=O)(=O)C(F)(F)C(F)(F)C(F)(F)C(F)(F)F [X = CH3, CF3CF2CF2CF2SO2NHCH3]
1800	1.05 × 10^−6	–	NS(=O)(=O)C(F)(F)C(F)(F)C(F)(F)C(F)(F)F [X = H, CF3CF2CF2CF2SO2NH2]
